This is an account of results in patent US9433212B2, “Plant growth regulator and method for using the same” (NIHON NOHYAKU CO., LTD., priority 2011, dated 2016).

Holding throughout (assay type): in vivo
Test [1] deals with paddy rice plants. The test can be described thus: Test Example 1: increase in stem number (promotion of tillering) of paddy rice plants. Conditions: for Stem number/plant: 43 days after transplantation; for Percentage of increase in stem number: non-treatment = 100. The text has this: (§1) Paddy rice plants were transplanted to an experimental paddy field (50 m^2, planted with 1250 paddy rice plants on average), and 10 days later, granules containing flubendiamide as an active ingredient were applied once at the predetermined doses. At 43 days after the transplantation, in 10 rice plants chosen at random, the percentage of Scirpophaga incertulas-caused dead hearts per plant, the percentage of control of Scirpophaga incertulas, the stem number per plant, and the percentage of increase in the stem number were measured. To exclude the positive effect of the insecticidal action of flubendiamide on the growth of paddy rice plants, chlorantraniliprole, which has an equivalent insecticidal action, was used as a control agrochemical.

Test [2] relates to Scirpophaga incertulas. The test is described as follows: Test Example 1: control of Scirpophaga incertulas (dead hearts) in paddy field. Conditions: for Percentage of control of S. incertulas: 43 days after transplantation; for Percentage of S. incertulas-caused dead hearts: applied once 10 days after transplantation, assessed 43 days after transplantation.
Excerpt: as §1

Test [3] concerns rice plants (variety: Takanari). The test is described as follows: Test Example 3: yield increase (numbers of panicles and unhulled rice grains) of paddy rice plants. The conditions noted are these: for Panicle number/plant / Unhulled rice grain number/plant: harvest at 100 days; for Percentage of increase (panicle number) / Percentage of increase (unhulled rice grain number): non-treatment = 100. The procedure:
Rice plants (variety: Takanari) of the 6.5- to 7-leaf stage were transplanted to 1-m^2 plots of a paddy field, and 2 or 12 days later, flubendiamide granules were applied at the predetermined doses. The test was performed in 4 replications. At 100 days after the transplantation, the rice plants were harvested, the numbers of panicles and unhulled rice grains per plant were measured and the averages were calculated. The percentages of increase were also calculated with the proviso that the non-treatment levels were set as 100.

The subject of test [4] is germinating rice seeds (variety: Nihonbare). The test can be described thus: Test Example 2: rooting promotion and plant height growth in paddy rice plants (agar test). Conditions: 25 ppm in 0.7% agar, 8 days after seeding. How it is done: A 0.7% agar solution containing 25 ppm of flubendiamide was poured into a glass cylinder (3 cm diameter×10 cm) and allowed to be solidified. Onto the solidified agar, ten germinating rice seeds (variety: Nihonbare) were sown. Then, the top of the cylinder was covered with Japanese paper and the cylinder was placed in a thermostatic chamber (light-dark cycle: 16 hours of light and 8 hours of dark, relative humidity: 60 to 70%) at 25° C. At 8 days after the seeding, the lengths of the longest root (primary root) and the stem-and-leaf part extending from each seed-rice were measured and the averages were calculated. The percentages of elongation were also calculated with the proviso that the non-treatment levels were set as 100.

Setting [5] is: 35 g a.i./ha granules applied 2 days after transplantation.
The mark [6] stands for this setting: 35 g a.i./ha granules applied 12 days after transplantation.
[7] abbreviates: 35 g a.i./ha, applied 2 days after transplantation.
Where [8] appears, read: 35 g a.i./ha, applied 12 days after transplantation.
The mark [9] stands for this setting: 70 g a.i./ha granules applied 2 days after transplantation.
Setting [10] is: 70 g a.i./ha granules applied 12 days after transplantation.
Setting [11] is: 70 g a.i./ha, applied 2 days after transplantation.
Setting [12] is: 70 g a.i./ha, applied 12 days after transplantation.
The mark [13] stands for this setting: regardless of application time and dose.

Consider `CNC(=O)c1cc(Cl)cc(C)c1NC(=O)c1cc(Br)nn1-c1ncccc1Cl` [Chlorantraniliprole], for which, in test [1] (40 g a.i./ha), the Stem number/plant is on record as 26.35 /plant and the “Percentage of increase in stem number” value turned out to be 119%. In addition, the “Percentage of increase in stem number” value in test [1] (40 g a.i./ha, listed as chlorantraniliprole) is given as “about 120%”. Besides, the “Increase in stem number per plant compared with the non-treatment level” value in test [1] (chlorantraniliprole treatment plot (40 g a.i./ha)) is on record as “about four”. In addition, in test [2] (40 g a.i./ha), the “Percentage of control of S. incertulas” value turned out to be 90.2% and the “Percentage of S. incertulas-caused dead hearts” value was 0.37%.
In the case of `Cc1cc(C(F)(C(F)(F)F)C(F)(F)F)ccc1NC(=O)c1cccc(I)c1C(=O)NC(C)(C)CS(C)(=O)=O` [Flubendiamide, 3-iodo-N′-(2-mesyl-1,1-dimethylethyl)-N-{4-[1,2,2,2-tetrafluoro-1-(trifluoromethyl)ethyl]-o-tolyl}phthalamide], the Panicle number/plant in test [3] (setting [5]) is given as 10.4 /plant; in test [3] (setting [6]), 11.9 /plant; in test [3] (setting [9]), 11.2 /plant; in test [3] (setting [10]), 12.5 /plant. For the same compound, the “Unhulled rice grain number/plant” value in test [3] (setting [5]) is given as 1360.3 /plant; in test [3] (setting [6]), 1528.0 /plant; in test [3] (setting [9]) it was 1484.0 /plant; in test [3] (setting [10]), 1600.0 /plant. The “Percentage of increase (panicle number)” value in test [3] (setting [7]) was determined as 110%; in test [3] (setting [8]), 126%; in test [3] (setting [11]) it was 119%; in test [3] (setting [12]), 132%. The “Percentage of increase (unhulled rice grain number)” value in test [3] (setting [7]) was 110%; in test [3] (setting [8]) it was 124%; in test [3] (setting [11]) it was 120%; in test [3] (setting [12]) it was 130%. For the same compound, the “Numbers of panicles versus non-treatment levels” value in test [3] (setting [13]) is on record as “significantly increased”. Further, the “Numbers of unhulled rice grains versus non-treatment levels” value in test [3] (setting [13]) is listed as “significantly increased”. In test [4] (25° C.), the Average root length was determined as 6.7 cm. Also, the Average stem-and-leaf length in test [4] (25° C.) was found to be 3.9 cm. In addition, the “Percentage of elongation in root length” value in test [4] (non-treatment = 100) came out at 160%. In test [4] (non-treatment = 100), the “Percentage of elongation in stem-and-leaf length” value turned out to be 170%. For the same compound, the Stem number/plant in test [1] (70 g a.i./ha) was 39.6 /plant; in test [1] (90 g a.i./ha), 38.0 /plant; in test [1] (120 g a.i./ha), 39.15 /plant. In addition, the “Percentage of increase in stem number” value came out at 178% in test [1] (70 g a.i./ha), 171% in test [1] (90 g a.i./ha) and 176% in test [1] (120 g a.i./ha). Further, the “Increase in stem number per plant compared with the non-treatment level” value in test [1] (flubendiamide treatment plots, regardless of dose (70-120 g a.i./ha)) was “about 17”. Also, the “Percentage of S. incertulas-caused dead hearts” value in test [2] (70 g a.i./ha granules) came to 0.48%; in test [2] (90 g a.i./ha granules), 0.34%; in test [2] (120 g a.i./ha granules), 0.30%. Besides, the “Percentage of control of S. incertulas” value in test [2] (70 g a.i./ha) was 87.3%; in test [2] (90 g a.i./ha), 91.0%; in test [2] (120 g a.i./ha), 92.1%.
